Measured values published in ChEMBL document CHEMBL5726952, “Compounds” (2019).
pIC50: −log10 of the molar value.

Tests used:
Test in all cases: Kinase Screening Assay: Compound IC50 values were determined from 10-point, 1:3 dilution curves starting at either 100 μM or 10 μM with 10 μM ATP, by Reaction Biology Corp. For the whole kinome screen compounds were screened against 340 wild type kinases at a single dose of 1 μM, in duplicate, with 10 μM of ATP by Reaction Biology Corp. The data was averaged and plotted as percentage enzyme …
[1] = target: Platelet-derived growth factor receptor alpha (Homo sapiens, UniProt P16234)
[2] = target: Mast/stem cell growth factor receptor Kit (Homo sapiens, UniProt P10721)
[3] = target: Tyrosine-protein kinase HCK (Homo sapiens, UniProt P08631)
[4] = target: Tyrosine-protein kinase Blk (Homo sapiens, UniProt P51451)
[5] = target: Proto-oncogene tyrosine-protein kinase receptor Ret (Homo sapiens, UniProt P07949)

Measured: pIC50

Sequence of Mast/stem cell growth factor receptor Kit (P10721 whole entry): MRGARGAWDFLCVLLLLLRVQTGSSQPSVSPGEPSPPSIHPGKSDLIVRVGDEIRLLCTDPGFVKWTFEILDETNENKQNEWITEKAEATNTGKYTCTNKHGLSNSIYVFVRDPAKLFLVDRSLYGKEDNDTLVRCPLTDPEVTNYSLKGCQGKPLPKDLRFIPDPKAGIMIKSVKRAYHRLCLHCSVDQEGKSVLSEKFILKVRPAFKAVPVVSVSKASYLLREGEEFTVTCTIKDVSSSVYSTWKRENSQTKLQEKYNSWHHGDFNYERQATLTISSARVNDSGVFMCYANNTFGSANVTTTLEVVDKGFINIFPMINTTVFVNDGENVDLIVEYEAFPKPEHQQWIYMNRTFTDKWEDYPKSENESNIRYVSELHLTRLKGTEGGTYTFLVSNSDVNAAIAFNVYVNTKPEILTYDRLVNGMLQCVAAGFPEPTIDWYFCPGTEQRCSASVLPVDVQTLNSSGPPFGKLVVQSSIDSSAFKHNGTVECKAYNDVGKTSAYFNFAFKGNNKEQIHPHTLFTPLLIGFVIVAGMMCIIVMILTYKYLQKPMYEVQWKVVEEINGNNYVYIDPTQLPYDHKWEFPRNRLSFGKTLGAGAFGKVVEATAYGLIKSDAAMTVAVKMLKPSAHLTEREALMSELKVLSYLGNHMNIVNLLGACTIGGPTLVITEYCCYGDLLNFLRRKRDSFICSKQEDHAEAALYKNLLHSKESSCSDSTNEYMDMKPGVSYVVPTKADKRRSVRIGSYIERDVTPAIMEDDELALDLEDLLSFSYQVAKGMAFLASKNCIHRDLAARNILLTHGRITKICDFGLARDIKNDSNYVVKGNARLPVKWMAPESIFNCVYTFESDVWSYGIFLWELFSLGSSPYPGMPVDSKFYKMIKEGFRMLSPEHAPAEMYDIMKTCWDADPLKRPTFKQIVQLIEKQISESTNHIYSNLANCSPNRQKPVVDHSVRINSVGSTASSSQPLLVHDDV
Sequence of Tyrosine-protein kinase Blk (P51451 whole entry): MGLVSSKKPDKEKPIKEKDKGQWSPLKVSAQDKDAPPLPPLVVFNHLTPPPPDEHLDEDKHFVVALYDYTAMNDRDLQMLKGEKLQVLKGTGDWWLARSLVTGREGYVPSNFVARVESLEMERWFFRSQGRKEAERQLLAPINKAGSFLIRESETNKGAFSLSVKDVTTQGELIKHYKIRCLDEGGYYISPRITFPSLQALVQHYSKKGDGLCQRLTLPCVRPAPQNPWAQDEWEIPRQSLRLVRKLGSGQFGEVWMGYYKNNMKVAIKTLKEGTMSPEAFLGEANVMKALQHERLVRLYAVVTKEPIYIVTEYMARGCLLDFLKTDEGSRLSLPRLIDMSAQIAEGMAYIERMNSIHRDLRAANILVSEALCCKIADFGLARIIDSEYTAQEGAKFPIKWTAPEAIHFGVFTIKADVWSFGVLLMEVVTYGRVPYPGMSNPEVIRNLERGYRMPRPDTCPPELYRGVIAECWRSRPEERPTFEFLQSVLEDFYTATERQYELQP
Sequence of Proto-oncogene tyrosine-protein kinase receptor Ret (P07949 whole entry): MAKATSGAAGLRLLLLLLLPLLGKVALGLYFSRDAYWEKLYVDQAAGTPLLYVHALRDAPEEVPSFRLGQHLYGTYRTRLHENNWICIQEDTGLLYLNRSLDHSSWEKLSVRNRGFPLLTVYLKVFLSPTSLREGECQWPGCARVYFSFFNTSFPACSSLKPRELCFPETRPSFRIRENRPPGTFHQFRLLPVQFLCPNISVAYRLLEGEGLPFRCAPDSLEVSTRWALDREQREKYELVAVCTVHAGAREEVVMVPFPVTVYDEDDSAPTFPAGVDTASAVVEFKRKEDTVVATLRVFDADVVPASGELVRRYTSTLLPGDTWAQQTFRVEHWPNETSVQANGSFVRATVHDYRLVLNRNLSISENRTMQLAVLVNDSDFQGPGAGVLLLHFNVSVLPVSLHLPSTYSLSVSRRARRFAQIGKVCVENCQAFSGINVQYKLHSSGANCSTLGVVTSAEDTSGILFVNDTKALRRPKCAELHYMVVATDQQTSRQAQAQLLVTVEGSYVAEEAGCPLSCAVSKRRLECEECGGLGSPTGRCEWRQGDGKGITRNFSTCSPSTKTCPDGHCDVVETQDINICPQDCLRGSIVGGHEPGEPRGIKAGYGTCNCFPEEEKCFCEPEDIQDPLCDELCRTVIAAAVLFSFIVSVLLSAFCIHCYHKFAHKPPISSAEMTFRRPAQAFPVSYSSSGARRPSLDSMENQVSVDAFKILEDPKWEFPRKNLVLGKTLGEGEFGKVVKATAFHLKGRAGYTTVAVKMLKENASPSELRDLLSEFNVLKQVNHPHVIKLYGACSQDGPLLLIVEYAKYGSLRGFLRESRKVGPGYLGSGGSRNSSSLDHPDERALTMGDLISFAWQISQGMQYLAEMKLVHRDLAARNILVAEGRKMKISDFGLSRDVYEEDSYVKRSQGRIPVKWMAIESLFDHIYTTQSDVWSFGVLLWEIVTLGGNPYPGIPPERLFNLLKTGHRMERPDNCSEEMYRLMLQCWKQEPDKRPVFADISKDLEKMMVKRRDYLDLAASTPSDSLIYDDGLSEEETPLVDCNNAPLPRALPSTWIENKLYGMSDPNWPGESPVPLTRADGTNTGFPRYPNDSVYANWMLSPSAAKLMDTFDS
Sequence of Tyrosine-protein kinase HCK (P08631 whole entry): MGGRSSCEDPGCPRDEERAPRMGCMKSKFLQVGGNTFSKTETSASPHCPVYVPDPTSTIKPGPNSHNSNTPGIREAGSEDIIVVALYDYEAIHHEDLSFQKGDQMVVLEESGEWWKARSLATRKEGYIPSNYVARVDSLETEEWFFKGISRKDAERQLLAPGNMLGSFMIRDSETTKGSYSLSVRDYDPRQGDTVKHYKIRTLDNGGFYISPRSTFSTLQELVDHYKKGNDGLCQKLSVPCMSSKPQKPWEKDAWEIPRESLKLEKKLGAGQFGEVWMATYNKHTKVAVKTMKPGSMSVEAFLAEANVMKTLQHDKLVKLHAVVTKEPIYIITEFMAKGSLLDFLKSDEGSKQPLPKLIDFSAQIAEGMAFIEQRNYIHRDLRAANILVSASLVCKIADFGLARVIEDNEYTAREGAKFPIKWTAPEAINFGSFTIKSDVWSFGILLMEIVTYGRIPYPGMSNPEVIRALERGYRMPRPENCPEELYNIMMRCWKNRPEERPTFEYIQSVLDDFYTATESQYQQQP
Sequence of Platelet-derived growth factor receptor alpha (P16234 whole entry): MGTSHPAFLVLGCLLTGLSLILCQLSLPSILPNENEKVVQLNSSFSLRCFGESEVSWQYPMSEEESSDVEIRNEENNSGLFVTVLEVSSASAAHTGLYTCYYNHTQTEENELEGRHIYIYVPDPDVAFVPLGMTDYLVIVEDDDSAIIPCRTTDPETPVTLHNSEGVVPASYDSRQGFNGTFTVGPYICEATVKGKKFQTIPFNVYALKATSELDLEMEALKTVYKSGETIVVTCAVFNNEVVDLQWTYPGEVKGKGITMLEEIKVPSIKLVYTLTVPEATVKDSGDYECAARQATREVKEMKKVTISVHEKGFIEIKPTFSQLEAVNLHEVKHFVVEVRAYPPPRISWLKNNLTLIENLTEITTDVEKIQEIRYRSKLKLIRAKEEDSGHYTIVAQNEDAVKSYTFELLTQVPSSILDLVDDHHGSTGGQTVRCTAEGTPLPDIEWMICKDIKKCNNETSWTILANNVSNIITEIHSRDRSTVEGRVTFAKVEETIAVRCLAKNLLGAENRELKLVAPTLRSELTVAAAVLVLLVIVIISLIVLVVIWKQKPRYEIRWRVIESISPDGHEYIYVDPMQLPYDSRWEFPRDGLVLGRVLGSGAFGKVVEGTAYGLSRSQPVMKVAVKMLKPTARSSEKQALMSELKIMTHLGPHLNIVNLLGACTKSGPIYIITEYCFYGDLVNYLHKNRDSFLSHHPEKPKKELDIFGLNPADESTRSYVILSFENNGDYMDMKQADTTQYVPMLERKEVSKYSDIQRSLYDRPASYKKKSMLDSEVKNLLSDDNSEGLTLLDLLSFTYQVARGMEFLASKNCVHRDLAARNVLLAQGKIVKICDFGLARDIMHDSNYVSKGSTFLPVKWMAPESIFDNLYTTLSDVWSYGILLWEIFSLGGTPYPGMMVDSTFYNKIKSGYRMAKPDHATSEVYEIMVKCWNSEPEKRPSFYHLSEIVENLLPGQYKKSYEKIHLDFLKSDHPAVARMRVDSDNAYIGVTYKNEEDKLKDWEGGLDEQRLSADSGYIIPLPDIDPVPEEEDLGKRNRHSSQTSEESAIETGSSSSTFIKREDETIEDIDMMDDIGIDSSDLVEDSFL

Cc1ccc(-c2nn(CCN3CCC(N(C)C)CC3)c3ncnc(N)c23)cc1
< 6.00: [1] | [2] | [3] | [4] | [5]
